System: CHIKV
Assay type: cell-based, chikungunya virus

Substance	Score_si1	Score_si2	Score_si3	Score_si4
Hs_CSNK1A1_5 (sense AGGGCTAAAGGCTGCAACAAA; chemistry not given here)	2.25	–	–	–
Hs_CUL4A_1 (sense ACCCATATTATTAGTGATAAA; chemistry not given here) [reference compound]	-2.33	–	–	–
Hs_D21S2056E_1 (CAGGGAATTCAGCTCCAGTAA; chemistry not given here)	2.83	–	–	–
Hs_DC-UbP_1 (AAGGCAGTTAAGAAATAGATA; chemistry not given here)	–	1.13	–	–
Hs_DC-UbP_2 (CAGGCTTTGAGACTCATGTAA; chemistry not given here)	1.59	–	–	–
Hs_DC-UbP_5 (AGGCAGTTAAGAAATAGATAA; chemistry not given here)	–	–	0.86	–
Hs_DHX38_1 (CAGGATTTGGAAATAAATTTA; chemistry not given here)	2.48	–	–	–
Hs_DHX38_2 (CAGCAGTGAATTTGCAAAGAA; chemistry not given here)	–	–	–	1.02
Hs_DKFZP434B168_1 (CTGAAATTACTTGCTAATAAA; chemistry not given here)	–	–	1.61	–
Hs_DKFZP564C186_1 (AAGGATGAGGACAGGAAGCAA; chemistry not given here)	2.71	–	–	–
Hs_DKFZP564C186_2 (CACGGACAGTGCTGCATTCAA; chemistry not given here)	–	–	1.17	–
Hs_DKFZp547E052_2 (CAGGAGATAGGACATCATTTA; chemistry not given here)	2.29	–	–	–
Hs_DLD_2 (CCCACTTATTCAAACAGAATA; chemistry not given here)	–	–	–	0.87
Hs_DLD_3 (CAGGTGGAATTGCCCACTTAT; chemistry not given here)	2.15	–	–	–
Hs_DLD_4 (TCGCTTGAATTTAGACAAGAT; chemistry not given here)	–	1.23	–	–
Hs_DMAP1_1 (GCGGATGTACGGGACATTCTA; chemistry not given here)	2.23	–	–	–
Hs_DOK6_1 (TACGCCAAACCTGGATATTTA; chemistry not given here) [reference compound]	–	–	-0.32	–
Hs_DOK6_5 (CTGAGCAACATGAAAGATTAA; chemistry not given here) [reference compound]	-2.96	–	–	–
Hs_E2F3_1 (TTGCGTTACTTTAAGTACTAA; chemistry not given here) [reference compound]	-2.09	–	–	–
Hs_E2F3_5 (TACAGTATTTGCGTTACTTTA; chemistry not given here) [reference compound]	–	-1.78	–	–
Hs_EEF1A1_1 (CTGGTTAATGATAACAATGCA; chemistry not given here)	–	–	2.24	–
Hs_EEF1A1_4 (CAACGTTACAACGGAAGTAAA; chemistry not given here)	2.64	–	–	–
Hs_EEF2_2 (TGCCGTTTCTTTCAATATTTA; chemistry not given here)	2.07	–	–	–
Hs_EIF2B2_2 (CAACATCATTGAGGCGATTAA; chemistry not given here)	2.1	–	–	–
Hs_EIF2B5_1 (CTTGTATATGTTAATATTAAA; chemistry not given here)	–	–	–	1.02
Hs_EIF2B5_2 (CAAAGTGAAGATGAAAGGTTA; chemistry not given here)	1.62	–	–	–
Hs_ENTPD2_1 (CACGTCCATGTTTATCTACAA; chemistry not given here)	–	1.25	–	–

Substance	Score_si1	Score_si2	Score_si3	Score_si4
Hs_ENTPD2_2 (CGGCGTGATCTTCCAGAAGAA; chemistry not given here)	1.32	–	–	–
Hs_EP400_1 (CAGAATGATTTGGACATTGAA; chemistry not given here)	2.29	–	–	–
Hs_EXOSC1_1 (TTCATTCTCTTGAGTAATAAA; chemistry not given here) [reference compound]	–	–	–	0.51
Hs_EXOSC1_2 (AAGCAGAGAAAGACATCTAAA; chemistry not given here) [reference compound]	-2.21	–	–	–
Hs_EZH2_6 (CAGGATGGTACTTTCATTGAA; chemistry not given here)	1.77	–	–	–
Hs_EZH2_7 (AACCATGTTTACAACTATCAA; chemistry not given here)	–	–	–	0.98
Hs_F25965_1 (CAGCGAGAACACGCCACTGTA; chemistry not given here)	1.49	–	–	–
Hs_F25965_2 (ACCAGCTTCGTTACTCAGAAA; chemistry not given here)	–	–	1.05	–
Hs_FASN_3 (CCGCTACATGGCCCAAGGGAA; chemistry not given here)	2.39	–	–	–
Hs_FBXO42_3 (CAGGCTGGGATCAAATCTCCA; chemistry not given here)	2.82	–	–	–
Hs_FCGRT_1 (CTCGTCGTCACTAACAGTCAA; chemistry not given here)	2.15	–	–	–
Hs_FCGRT_2 (AAGGATGTAAATGTGATTCCA; chemistry not given here)	–	1.36	–	–
Hs_FLJ00193_2 (GAGCAGCTACATGGAGATGAA; chemistry not given here)	2.41	–	–	–
Hs_FLJ10134_1 (CTGATGTTATATGACTATAAA; chemistry not given here)	1.71	–	–	–
Hs_FLJ10134_2 (CTCCTTGACCATGGAATTATA; chemistry not given here)	–	1.53	–	–
Hs_FLJ11752_1 (sense CTGGATATTACTAGAGTTGTA; chemistry not given here)	2.31	–	–	–
Hs_FLJ20257_2 (sense CACCAAGTGGGTGCATCTGAA; chemistry not given here)	2.26	–	–	–
Hs_FLJ20530_2 (sense TTGACTTATCTTCATCATAAA; chemistry not given here)	2.95	–	–	–
Hs_FLJ31164_2 (sense CCAGCTGAGCACCCGAATAAA; chemistry not given here)	–	–	–	0.41
Hs_FLJ31164_3 (sense GAAGCTGTTGATAGTATTGAA; chemistry not given here)	1.5	–	–	–
Hs_FLJ31164_4 (sense GAGCAACTTGCTGGATGTGAA; chemistry not given here)	–	1.07	–	–
Hs_FLT4_4 (sense CGCGCTGATGTCGGAGCTCAA; chemistry not given here)	1.18	–	–	–
Hs_FLT4_8 (sense CACCGTGTGGGCTGAGTTTAA; chemistry not given here)	–	1.07	–	–
Hs_FTSJ2_1 (sense CAGAGGAATTCCAGAATGTAA; chemistry not given here)	–	1.91	–	–
Hs_FTSJ2_2 (sense CAGAATGTAAGGATCATCAAA; chemistry not given here)	–	–	1.86	–
Hs_FXC1_2 (sense CAAGTATTTGTTGGTTCATAA; chemistry not given here)	2.83	–	–	–
Hs_GAP43_1 (sense CCGGCTCAGCTGAGACAGAAA; chemistry not given here)	2.5	–	–	–

Substance	Score_si1	Score_si2	Score_si3	Score_si4
Hs_GBF1_1 (sense AAGAATATTTACATCATTCAA; chemistry not given here)	–	–	–	1.75
Hs_GCN1L1_2 (sense CAGGTTCAGCTGGAATGTGAA; chemistry not given here)	2.09	–	–	–
Hs_GFRA4_2 (sense CAGGTCAGAGACCATCCAGAA; chemistry not given here)	1.82	–	–	–
Hs_GFRA4_4 (sense CAGGAGGCATCTTGGTTGTAA; chemistry not given here)	–	–	1.57	–
Hs_GLTSCR2_4 (sense CAAGTTCAAACGCAAGTACAA; chemistry not given here)	–	1.95	–	–
Hs_GLTSCR2_6 (sense CCGGAGCTTCCTACAATCCAT; chemistry not given here)	–	–	1.7	–
Hs_GNB2L1_2 (sense CAGATTGTCTCTGGATCTCGA; chemistry not given here)	2.65	–	–	–
Hs_GNB2L1_5 (sense TTGGCACACGCTAGAAGTTTA; chemistry not given here)	–	–	–	1.27
Hs_GNB2L1_6 (sense AAGGATGGCCAGGCCATGTTA; chemistry not given here)	–	1.62	–	–
Hs_GNG13_2 (sense CACGTGATTACAGTCTGTAAA; chemistry not given here)	–	1.42	–	–
Hs_GNG13_3 (sense CCCACTCACAACATCTTGTAA; chemistry not given here)	–	–	–	0.93
Hs_GNG13_4 (sense CCCACTCACTCCATCTTGTAA; chemistry not given here)	–	–	1.13	–
Hs_GP1BB_3 (sense CTGCTGCGTCTCCCTTCCAAA; chemistry not given here) [reference compound]	–	-0.99	–	–
Hs_GP1BB_4 (sense CGAGCTGGTGCTGACCGGCAA; chemistry not given here) [reference compound]	–	–	-0.68	–
Hs_GP1BB_5 (sense ACGAGTCCTGAGGAGAGAA; chemistry not given here) [reference compound]	-1.46	–	–	–
Hs_GPS1_3 (sense CAAGTGGGCGGTGTCCATTAA; chemistry not given here)	–	–	1.75	–
Hs_GPS1_6 (sense CAGCCTGGATCTGGAACAGTA; chemistry not given here)	–	1.76	–	–
Hs_GPSN2_1 (sense CTGGATCGGTTTCGCCATCAT; chemistry not given here)	–	2.41	–	–
Hs_GPSN2_2 (sense GTGGATGGCCTATTACATCAA; chemistry not given here)	2.86	–	–	–
Hs_GRB10_2 (sense CTACCGTATAGTAACACTGTA; chemistry not given here)	0.95	–	–	–
Hs_GRB10_4 (sense GTGAATTGTTGGAGAATGTAA; chemistry not given here)	–	–	0.73	–
Hs_GRB10_6 (sense CTAGATGACGGGAACACCAAA; chemistry not given here)	–	–	–	0.5
Hs_GSTP1_2 (sense CCAGATCTCCTTCGCTGACTA; chemistry not given here)	2.46	–	–	–
Hs_GSTP1_3 (sense TCCTTTCTCCAGGACCAATAA; chemistry not given here)	–	–	–	-0.14
Hs_GSTP1_5 (sense CCTCATCTACACCAACTATGA; chemistry not given here)	–	–	0.45	–
